One assay concerns EOL-1^PDGFRα. As to the kind of experiment: cells. Details: species or system human leukemia lines named per line.
The next assay has as its system HL60^Flt3-WT. The assay can be described thus: cells. Details: species or system human leukemia lines named per line.
In the next assay the test system is KG1^FGFR1OP2-FGFR1. The assay can be described thus: cells. Details: species or system human leukemia lines named per line.
Another assay deals with MEG01^Flt-WT. The assay can be described thus: cells. Details: species or system human leukemia lines named per line. The conditions noted are these: read-out: Quizaritinib (AC220); 72 h proliferation, mean ± SD; inhibitor.
Another assay has as its system MOLM-13^Flt3-ITD. The assay can be described thus: cells. Details: species or system human leukemia lines named per line.
For a further assay, the system named is MOLT4^Flt3-WT. The assay can be described thus: cells. Details: species or system human leukemia lines named per line.
The subject of a further assay is MV411^Flt3-ITD. As to the kind of experiment: cells. Details: species or system human leukemia lines named per line.
The subject of the next assay is NB4^Flt3-WT. The assay can be described thus: cells. Details: species or system human leukemia lines named per line. To be noted: read-out: Quizaritinib (AC220); 72 h proliferation, mean ± SD; inhibitor.
The subject of the next assay is THP1^Flt3-WT. The assay can be described thus: cells. Details: species or system human leukemia lines named per line.
A further assay relates to U937^Flt3-WT. The assay can be described thus: cells. Details: species or system human leukemia lines named per line.
The next assay relates to BaF3-FLT3-D835H. As to the kind of experiment: cells. Details: species or system Ba/F3 stable lines.
For a further assay, the system named is BaF3-FLT3-D835V. The assay can be described thus: cells. Details: species or system Ba/F3 stable lines.
Another assay deals with BaF3-FLT3-ITD-D835G. As to the kind of experiment: cells. Details: species or system Ba/F3 stable lines. The conditions noted are these: read-out: Quizartinib / (AC220); 72 h proliferation; inhibitor.
A further assay concerns BaF3-FLT3-ITD-D835I. As to the kind of experiment: cells. Details: species or system Ba/F3 stable lines. To be noted: read-out: Quizartinib / (AC220); 72 h proliferation; inhibitor.
The next assay deals with BaF3-FLT3-ITD-D835N. The assay can be described thus: cells. Details: species or system Ba/F3 stable lines. The conditions noted are these: read-out: Quizartinib / (AC220); 72 h proliferation; inhibitor.
The subject of a further assay is BaF3-FLT3-ITD-D835V. The assay can be described thus: cells. To be noted: read-out: Quizartinib / (AC220); 72 h proliferation; inhibitor. Details: species or system Ba/F3 stable lines.
For the next assay, the system named is BaF3-FLT3-ITD-D835Y. The assay can be described thus: cells. Details: species or system Ba/F3 stable lines.
A further assay deals with BaF3-FLT3-ITD-F691I. The assay can be described thus: cells. Details: species or system Ba/F3 stable lines. To be noted: read-out: Quizartinib / (AC220); 72 h proliferation; inhibitor.
The next assay has as its system BaF3-FLT3-ITD-G697R. As to the kind of experiment: cells. Details: species or system Ba/F3 stable lines. The conditions noted are these: read-out: Quizartinib / (AC220); 72 h proliferation; inhibitor.
For the next assay, the system named is BaF3-FLT3-ITD-N676D. The assay can be described thus: cells. Details: species or system Ba/F3 stable lines.
In a further assay the test system is BaF3-FLT3-ITD-Y842H. The assay can be described thus: cells. Details: species or system Ba/F3 stable lines.
A further assay concerns BaF3-FLT3-ITD-Y842R. The assay can be described thus: cells. The conditions noted are these: read-out: Quizartinib / (AC220); 72 h proliferation; inhibitor. Details: species or system Ba/F3 stable lines.
The next assay has as its system BaF3-FLT3-MOLM-ITD. As to the kind of experiment: cells. Details: species or system Ba/F3 stable lines.
For the next assay, the system named is BaF3-Tel-FLT3-ITD. The assay can be described thus: cells. Details: species or system Ba/F3 stable lines. To be noted: read-out: Quizartinib / (AC220); 72 h proliferation; inhibitor.
A further assay concerns BaF3-tel-FLT3-D835Y. As to the kind of experiment: cells. Details: species or system Ba/F3 stable lines.
In another assay the test system is BaF3-tel-FLT3-K663Q. The assay can be described thus: cells. Details: species or system Ba/F3 stable lines.
In another assay the test system is BaF3-tel-FLT3-R834Q. As to the kind of experiment: cells. Details: species or system Ba/F3 stable lines.
A further assay deals with BaF3-tel-FLT3. As to the kind of experiment: cells. Details: species or system Ba/F3 stable lines. The conditions noted are these: read-out: Quizartinib / (AC220); 72 h proliferation; inhibitor.
The next assay concerns the target PDGFRα (Homo sapiens, UniProt P16234). The assay can be described thus: FRET-based Z'-Lyte kinase assay, parallel comparison. Format: biochemical.
The mark [1] stands for this setting: read-out: Quizaritinib (AC220), 72 h proliferation, mean ± SD, inhibitor.
[2] abbreviates: read-out: Quizartinib / (AC220), 72 h proliferation, inhibitor.
Where [3] appears, read: Mus musculus, BaF3, 72 h, read-out: Midostaurin / (PKC412).
Setting [4] is: 72 h, read-out: GZD824 (HQP1351).
Where [5] appears, read: Mus musculus, BaF3, 72 h, read-out: GZD824.
Where [6] appears, read: 72 h, read-out: Gilteritinib (ASP2215).

Where two headings read alike, the source gives them in different places.

Sequence of PDGFRα (P16234 24-1089): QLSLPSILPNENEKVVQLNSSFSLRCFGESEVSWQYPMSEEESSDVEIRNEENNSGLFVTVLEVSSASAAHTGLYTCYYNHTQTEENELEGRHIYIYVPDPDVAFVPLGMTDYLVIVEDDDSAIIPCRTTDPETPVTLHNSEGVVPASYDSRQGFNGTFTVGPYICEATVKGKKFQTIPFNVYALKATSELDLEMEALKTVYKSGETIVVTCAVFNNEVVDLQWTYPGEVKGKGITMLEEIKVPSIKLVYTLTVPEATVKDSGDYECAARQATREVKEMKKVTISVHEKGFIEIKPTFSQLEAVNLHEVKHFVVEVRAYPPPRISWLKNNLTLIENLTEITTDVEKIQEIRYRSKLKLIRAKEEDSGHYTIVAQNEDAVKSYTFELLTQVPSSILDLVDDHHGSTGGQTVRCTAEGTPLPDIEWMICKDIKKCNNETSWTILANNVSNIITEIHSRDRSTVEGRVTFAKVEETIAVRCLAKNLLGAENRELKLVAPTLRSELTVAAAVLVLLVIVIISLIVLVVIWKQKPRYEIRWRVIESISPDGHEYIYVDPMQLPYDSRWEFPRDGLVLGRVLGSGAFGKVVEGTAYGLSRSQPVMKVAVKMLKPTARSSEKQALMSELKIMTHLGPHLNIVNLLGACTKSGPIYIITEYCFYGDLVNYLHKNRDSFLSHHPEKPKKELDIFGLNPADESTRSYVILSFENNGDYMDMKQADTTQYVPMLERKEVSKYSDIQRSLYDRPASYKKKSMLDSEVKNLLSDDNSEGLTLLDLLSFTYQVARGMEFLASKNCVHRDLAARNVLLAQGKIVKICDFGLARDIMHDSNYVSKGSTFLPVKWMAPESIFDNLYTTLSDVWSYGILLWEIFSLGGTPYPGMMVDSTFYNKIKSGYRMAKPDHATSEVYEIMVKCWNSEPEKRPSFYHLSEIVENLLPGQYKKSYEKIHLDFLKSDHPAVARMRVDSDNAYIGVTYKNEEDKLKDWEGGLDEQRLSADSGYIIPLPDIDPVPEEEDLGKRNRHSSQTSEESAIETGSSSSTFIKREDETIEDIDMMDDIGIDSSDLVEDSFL

Regarding `CC(C)(C)c1cc(NC(=O)Nc2ccc(-c3cn4c(n3)sc3cc(OCCN5CCOCC5)ccc34)cc2)no1` [quizartinib], the IC50 in the assay on EOL-1^PDGFRα (setting [1]) turned out to be 1510 ± 451 nM; with HL60^Flt3-WT (setting [1]), 1170 ± 72.1 nM; with KG1^FGFR1OP2-FGFR1 (setting [1]), 1020 ± 572 nM; in the assay on MEG01^Flt-WT it was 3310 ± 1560 nM; with MOLM-13^Flt3-ITD (setting [1]), 5.67 ± 9.29 nM; in the assay on MOLT4^Flt3-WT (setting [1]), 1950 ± 1750 nM. Moreover, the IC50 was 1.07 ± 0.32 nM in the assay with MV411^Flt3-ITD (setting [1]); 1990 ± 890 nM in the assay on NB4^Flt3-WT; above 1000 nM in the assay with THP1^Flt3-WT (setting [1]); 1430 ± 246 nM in the assay with U937^Flt3-WT (setting [1]); 4 nM with BaF3-FLT3-D835H (setting [2]); 40.2 nM with BaF3-FLT3-D835V (setting [2]). Also, the IC50 with BaF3-FLT3-ITD-D835G stood at 4.3 nM; in the assay on BaF3-FLT3-ITD-D835I it was 183 nM; in the assay with BaF3-FLT3-ITD-D835N, 1.6 nM; in the assay with BaF3-FLT3-ITD-D835V it was 126 nM; in the assay with BaF3-FLT3-ITD-D835Y (setting [2]) it was 35.5 nM; in the assay with BaF3-FLT3-ITD-F691I, 95 nM. The IC50 was 22.8 nM with BaF3-FLT3-ITD-G697R; 8.3 nM with BaF3-FLT3-ITD-N676D (setting [2]); 5.3 nM in the assay on BaF3-FLT3-ITD-Y842H (setting [2]); 7.2 nM with BaF3-FLT3-ITD-Y842R; 0.8 nM in the assay on BaF3-FLT3-MOLM-ITD (setting [2]); 2 nM with BaF3-Tel-FLT3-ITD. Besides, the IC50 in the assay with BaF3-tel-FLT3-D835Y (setting [2]) was 2.4 nM; with BaF3-tel-FLT3-K663Q (setting [2]), above 1000 nM; with BaF3-tel-FLT3-R834Q (setting [2]) it was above 1000 nM; in the assay on BaF3-tel-FLT3 it was 3.1 nM.
Turning to `CO[C@@H]1[C@H](N(C)C(=O)c2ccccc2)C[C@H]2O[C@]1(C)n1c3ccccc3c3c4c(c5c6ccccc6n2c5c31)C(=O)NC4` [Midostaurin], the figures for the IC50 with BaF3-FLT3-ITD-N676D (setting [3]) and in the assay on BaF3-tel-FLT3-R834Q (setting [3]) were 62.4 nM and 63.1 nM, respectively.
For `Cc1ccc(C(=O)Nc2ccc(CN3CCN(C)CC3)c(C(F)(F)F)c2)cc1C#Cc1cnc2[nH]ncc2c1` [GZD824], the IC50 was determined as 7.56 ± 2.73 nM in the assay on EOL-1^PDGFRα (setting [4]); 922 ± 210 nM in the assay on HL60^Flt3-WT (setting [4]); 3.66 ± 1.93 nM with KG1^FGFR1OP2-FGFR1 (setting [4]); 246 ± 139 nM in the assay with MOLT4^Flt3-WT (setting [4]); 1170 ± 105 nM in the assay on U937^Flt3-WT (setting [4]); 17.6 nM in the assay on BaF3-FLT3-D835H (setting [5]). The IC50 with BaF3-FLT3-D835V (setting [5]) was found to be 34.7 nM; in the assay with BaF3-FLT3-ITD-D835Y (setting [5]), 35.7 nM; in the assay with BaF3-FLT3-ITD-N676D (setting [5]), 7.2 nM; with BaF3-FLT3-ITD-Y842H (setting [5]), 3.2 nM; in the assay on BaF3-FLT3-MOLM-ITD (setting [5]), 0.8 nM; in the assay on BaF3-tel-FLT3-D835Y (setting [5]), 5.7 nM. For the same compound, the figures for the IC50 with BaF3-tel-FLT3-K663Q (setting [5]) and in the assay on BaF3-tel-FLT3-R834Q (setting [5]) were 853 nM and 76.2 nM, respectively.
As to `CCc1nc(C(N)=O)c(Nc2ccc(N3CCC(N4CCN(C)CC4)CC3)c(OC)c2)nc1NC1CCOCC1` [gilteritinib], the IC50 is 148 ± 7.78 nM on PDGFRα; 689 ± 398 nM with HL60^Flt3-WT (setting [6]); 9.35 ± 2.23 nM in the assay on MOLM-13^Flt3-ITD (setting [6]); 3.34 ± 0.91 nM with MV411^Flt3-ITD (setting [6]); above 1000 nM in the assay on THP1^Flt3-WT (setting [6]).

(Values after article PMC7125355 (Translational Oncology, 2020).)
